Experimental data published in ChEMBL document CHEMBL1201862, “PubChem BioAssay data set” (2004).
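Protocol summary: plate cells (96-well), add compound at 5 concentrations, incubate 48 h, interpolate endpoints linearly. At the GI50, growth is halved.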 Active and inactive are the calls of the source. No stated cut-off is given here; in the data, active = GI50 up to about 1.1 µM and inactive = higher.

How the values were obtained:
Experiment in all cases: NCI tumour cell line growth inhibition, 48 h
SR = tested on: SR
MOLT-4 = tested on: MOLT-4
HCT-15 = tested on: HCT-15
NCI-H23 = tested on: NCI-H23
EKVX = tested on: EKVX
SW-620 = tested on: SW-620
IGROV-1 = tested on: IGROV-1
OVCAR-5 = tested on: OVCAR-5
UACC-62 = tested on: UACC-62
U-251 = tested on: U-251
SK-MEL-5 = tested on: SK-MEL-5
OVCAR-4 = tested on: OVCAR-4
LOX IMVI = tested on: LOX IMVI
UO-31 = tested on: UO-31
RXF 393 = tested on: RXF 393
ACHN = tested on: ACHN
SF-539 = tested on: SF-539
RPMI-8226 = tested on: RPMI-8226
CCRF-CEM = tested on: CCRF-CEM
SK-OV-3 = tested on: SK-OV-3

## O=[N+]([O-])c1ccc(Nc2nc3ccccc3s2)cc1
SR
  GI50: 10.7 µM (inactive)
MOLT-4
  GI50: 8.36 µM (inactive)
HCT-15
  GI50: 28.8 µM
NCI-H23
  GI50: 16 µM (inactive)
EKVX
  GI50: 18.7 µM (inactive)
SW-620
  GI50: 35 µM (inactive)
IGROV-1
  GI50: 3.94 µM (inactive)
OVCAR-5
  GI50: 23 µM (inactive)
UACC-62
  GI50: 20.2 µM (inactive)
U-251
  GI50: 17.3 µM (inactive)
SK-MEL-5
  GI50: 21.6 µM (inactive)
OVCAR-4
  GI50: 43.2 µM (inactive)
LOX IMVI
  GI50: 14.9 µM (inactive)
UO-31
  GI50: 18.5 µM (inactive)
RXF 393
  GI50: 14.7 µM (inactive)
ACHN
  GI50: 29.5 µM (inactive)

## O=C(NCCCNC(=O)c1ccc2cc(O)c(O)cc2c1)c1ccc2cc(O)c(O)cc2c1
SF-539
  GI50: 16.5 µM (inactive)
SR
  GI50: 25.3 µM (inactive)
MOLT-4
  GI50: 30 µM (inactive)
HCT-15
  GI50: 19.9 µM
NCI-H23
  GI50: 22.5 µM (inactive)
EKVX
  GI50: 27.9 µM (inactive)
SW-620
  GI50: 43 µM (inactive)
IGROV-1
  GI50: 35.6 µM (inactive)
OVCAR-5
  GI50: 63 µM (inactive)
RPMI-8226
  GI50: 29.3 µM (inactive)
UACC-62
  GI50: 20 µM (inactive)
U-251
  GI50: 21.9 µM (inactive)
SK-MEL-5
  GI50: 22.8 µM (inactive)
OVCAR-4
  GI50: 16.7 µM (inactive)
LOX IMVI
  GI50: 24.2 µM (inactive)
CCRF-CEM
  GI50: 27.1 µM (inactive)
UO-31
  GI50: 34.1 µM (inactive)
RXF 393
  GI50: 24.7 µM (inactive)
ACHN
  GI50: 23.9 µM (inactive)

## CCCOC(=O)CCC(NC(=O)c1ccc(Nc2nc3ccccc3nc2-c2cccs2)cc1)C(=O)OCCC (configuration not stated)
SF-539
  GI50: > 100 µM (inactive)
SR
  GI50: 61.9 µM (inactive)
MOLT-4
  GI50: 2.31 µM (inactive)
HCT-15
  GI50: > 100 µM
NCI-H23
  GI50: > 100 µM (inactive)
EKVX
  GI50: > 100 µM (inactive)
SW-620
  GI50: > 100 µM (inactive)
IGROV-1
  GI50: 55.1 µM (inactive)
OVCAR-5
  GI50: 56 µM (inactive)
SK-OV-3
  GI50: > 100 µM (inactive)
RPMI-8226
  GI50: > 100 µM (inactive)
UACC-62
  GI50: 41.7 µM (inactive)
U-251
  GI50: > 100 µM (inactive)
SK-MEL-5
  GI50: 72.1 µM (inactive)
OVCAR-4
  GI50: > 100 µM (inactive)
LOX IMVI
  GI50: > 100 µM (inactive)
CCRF-CEM
  GI50: 3.62 µM (inactive)
UO-31
  GI50: 95.9 µM (inactive)
RXF 393
  GI50: 67.9 µM (inactive)
ACHN
  GI50: > 100 µM (inactive)

## Nc1nc(=S)[nH]c2nc3c(c(-c4ccccc4)c12)CCCC3
SF-539
  GI50: 71.6 µM (inactive)
SR
  GI50: > 100 µM (inactive)
MOLT-4
  GI50: > 100 µM (inactive)
HCT-15
  GI50: > 100 µM
NCI-H23
  GI50: > 100 µM (inactive)
EKVX
  GI50: 50 µM (inactive)
SW-620
  GI50: > 100 µM (inactive)
IGROV-1
  GI50: > 100 µM (inactive)
OVCAR-5
  GI50: > 100 µM (inactive)
SK-OV-3
  GI50: > 100 µM (inactive)
RPMI-8226
  GI50: > 100 µM (inactive)
UACC-62
  GI50: > 100 µM (inactive)
U-251
  GI50: > 100 µM (inactive)
SK-MEL-5
  GI50: > 100 µM (inactive)
OVCAR-4
  GI50: > 100 µM (inactive)
LOX IMVI
  GI50: > 100 µM (inactive)
CCRF-CEM
  GI50: > 10 µM (inactive)
UO-31
  GI50: > 100 µM (inactive)
ACHN
  GI50: > 100 µM (inactive)

## O=c1c2cc(I)ccc2nc(-c2cccs2)n1Nc1ccccc1
SF-539
  GI50: 33.5 µM (inactive)
SR
  GI50: 12.1 µM (inactive)
MOLT-4
  GI50: 8.17 µM (inactive)
HCT-15
  GI50: 5.78 µM
NCI-H23
  GI50: 19.9 µM (inactive)
EKVX
  GI50: 13.5 µM (inactive)
SW-620
  GI50: 2.72 µM (inactive)
IGROV-1
  GI50: 1.39 µM (inactive)
OVCAR-5
  GI50: 30.5 µM (inactive)
SK-OV-3
  GI50: 13.9 µM (inactive)
RPMI-8226
  GI50: 4.61 µM (inactive)
UACC-62
  GI50: 0.719 µM (active)
U-251
  GI50: 10.4 µM (inactive)
SK-MEL-5
  GI50: 6.79 µM (inactive)
OVCAR-4
  GI50: 3.06 µM (inactive)
LOX IMVI
  GI50: 0.117 µM (active)
UO-31
  GI50: 0.889 µM (active)
RXF 393
  GI50: 39.3 µM (inactive)
ACHN
  GI50: 0.675 µM (active)

## CC1C/C(=C\c2ccc(O)c(O)c2)C(=O)/C(=C/c2ccc(O)c(O)c2)C1 (configuration not stated)
SF-539
  GI50: 3.25 µM (inactive)
SR
  GI50: 3.82 µM (inactive)
MOLT-4
  GI50: 4.76 µM (inactive)
HCT-15
  GI50: 8.85 µM
NCI-H23
  GI50: 4.14 µM (inactive)
EKVX
  GI50: 14.1 µM (inactive)
SW-620
  GI50: 11.6 µM (inactive)
IGROV-1
  GI50: 6 µM (inactive)
OVCAR-5
  GI50: 17.3 µM (inactive)
SK-OV-3
  GI50: 18.1 µM (inactive)
UACC-62
  GI50: 3.17 µM (inactive)
U-251
  GI50: 5.51 µM (inactive)
SK-MEL-5
  GI50: 4.23 µM (inactive)
OVCAR-4
  GI50: 7.16 µM (inactive)
LOX IMVI
  GI50: 7.06 µM (inactive)
CCRF-CEM
  GI50: 3.06 µM (inactive)
RXF 393
  GI50: 3.73 µM (inactive)
ACHN
  GI50: 8.71 µM (inactive)

## COc1ccc(NC2=NCCO2)c2ccccc12
SF-539
  GI50: > 10 µM (inactive)
SR
  GI50: > 10 µM (inactive)
MOLT-4
  GI50: > 10 µM (inactive)
HCT-15
  GI50: > 10 µM
EKVX
  GI50: > 10 µM (inactive)
SW-620
  GI50: > 10 µM (inactive)
IGROV-1
  GI50: > 10 µM (inactive)
OVCAR-5
  GI50: > 10 µM (inactive)
SK-OV-3
  GI50: > 10 µM (inactive)
RPMI-8226
  GI50: > 10 µM (inactive)
UACC-62
  GI50: > 10 µM (inactive)
SK-MEL-5
  GI50: > 10 µM (inactive)
OVCAR-4
  GI50: > 10 µM (inactive)
LOX IMVI
  GI50: > 10 µM (inactive)
CCRF-CEM
  GI50: > 10 µM (inactive)
UO-31
  GI50: > 10 µM (inactive)
RXF 393
  GI50: > 10 µM (inactive)
ACHN
  GI50: > 10 µM (inactive)

## O=Cc1c(Br)[nH]c2ccccc12
SF-539
  GI50: > 100 µM (inactive)
MOLT-4
  GI50: 27 µM (inactive)
HCT-15
  GI50: > 100 µM
NCI-H23
  GI50: > 100 µM (inactive)
EKVX
  GI50: > 100 µM (inactive)
SW-620
  GI50: > 100 µM (inactive)
IGROV-1
  GI50: > 81.1 µM (inactive)
OVCAR-5
  GI50: > 91.4 µM (inactive)
SK-OV-3
  GI50: 94.4 µM (inactive)
RPMI-8226
  GI50: 19.3 µM (inactive)
UACC-62
  GI50: 47 µM (inactive)
U-251
  GI50: 89.3 µM (inactive)
SK-MEL-5
  GI50: 45.4 µM (inactive)
OVCAR-4
  GI50: 56.8 µM (inactive)
LOX IMVI
  GI50: 71.6 µM (inactive)
CCRF-CEM
  GI50: 96.6 µM (inactive)
UO-31
  GI50: 39.9 µM (inactive)
RXF 393
  GI50: > 100 µM (inactive)
